# In patent US8952024B2, “Herbicidal pyrimidone derivatives” (E I du Pont de Nemours and Company, priority 2009, dated 2015):
# Experiments:
# Assay type in all cases: in vivo
# [1] = test system: Surinam grass (Brachiaria decumbens); test: Test B pre-/postemergence plant response; settings: for Plant response rating, Surinam Grass: Postemergence
# How it was run: (§1)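 Steps: sow seed in loam–sand soil and spray preemergence, or grow plants in peat-based medium to 1–4 leaves (2–18 cm) and spray postemergence; formulation is non-phytotoxic solvent plus surfactant; hold in greenhouse 13–15 days; score visually vs controls, 0 = no effect, 100 = complete control.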
# [2] = test system: velvetleaf (Abutilon theophrasti); test: Test B pre-/postemergence plant response; settings: for Plant response rating, Velvetleaf: Postemergence
# How it was run: as §1
# [3] = test system: blackgrass (Alopecurus myosuroides); test: Test B pre-/postemergence plant response; settings: for Plant response rating, Blackgrass: Postemergence
# How it was run: as §1
# soybean (Glycine max) = test: Test B pre-/postemergence plant response; settings: for Plant response rating, Soybean: Postemergence
# How it was run: as §1
# [4] = test system: wheat (Triticum aestivum); test: Test B pre-/postemergence plant response; settings: for Plant response rating, Wheat: Postemergence
# How it was run: as §1
# [5] = test system: cocklebur (Xanthium strumarium); test: Test B pre-/postemergence plant response; settings: for Plant response rating, Cocklebur: Postemergence
# How it was run: as §1
# [6] = test system: pigweed (Amaranthus retroflexus); test: Test B pre-/postemergence plant response; settings: for Plant response rating, Pigweed: Postemergence
# How it was run: as §1
# wild oat (Avena fatua) = test: Test B pre-/postemergence plant response; settings: for Plant response rating, Oat, Wild: Postemergence
# How it was run: as §1
# kochia (Kochia scoparia) = test: Test B pre-/postemergence plant response; settings: for Plant response rating, Kochia: Postemergence
# How it was run: as §1
# [7] = test system: lambsquarters (Chenopodium album); test: Test B pre-/postemergence plant response; settings: for Plant response rating, Lambsquarters: Postemergence
# How it was run: as §1
# [8] = test system: chickweed (Stellaria media); test: Test B postemergence plant response; settings: for Plant response rating, Chickweed: Postemergence
# How it was run: (§2)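 Visual ratings from 0 (no effect) to 100 (complete control), made against controls 13–15 days after treatment, kept in a greenhouse. Compounds were applied postemergence to potted plants at the 1- to 4-leaf stage (2–18 cm).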
# [9] = test system: canarygrass (Phalaris minor); test: Test B postemergence plant response; settings: for Plant response rating, Canarygrass: Postemergence
# How it was run: as §2
# [10] = test system: windgrass (Apera spica-venti); test: Test B postemergence plant response; settings: for Plant response rating, Windgrass: Postemergence
# How it was run: as §2
# [11] = 31 g ai/ha, 0 to 100 scale (0 no effect, 100 complete control)
# [12] = 62 g ai/ha, scale 0 to 100 (0 no effect, 100 complete control)
# [13] = 125 g ai/ha, scale 0 (no effect) to 100 (complete control), 13 to 15 days
# [14] = 250 g ai/ha, scale 0 to 100 (0 no effect, 100 complete control), 13 to 15 days
# [15] = 62 g ai/ha, postemergence, 0 is no effect, 100 is complete control, 13 to 15 days
# [16] = 125 g ai/ha, scale 0 to 100 (0 no effect, 100 complete control)
smiles,measurement,setting,value
CCn1c(-c2ccccc2)ncc(C(=O)C2=C(O)C3CCC(C3)C2=O)c1=O (centres unmarked) [Compound 239],"Plant response rating, Surinam Grass",[1]; [11],25
same,"Plant response rating, Surinam Grass",[1]; [12],35
same,"Plant response rating, Surinam Grass",[1]; [13],45
same,"Plant response rating, Surinam Grass",[1]; [14],75
same,"Plant response rating, Velvetleaf",[2]; [11],100
same,"Plant response rating, Velvetleaf",[2]; [12],100
same,"Plant response rating, Velvetleaf",[2]; [13],100
same,"Plant response rating, Velvetleaf",[2]; [14],100
same,"Plant response rating, Blackgrass",[3]; [11],5
same,"Plant response rating, Blackgrass",[3]; [12],5
same,"Plant response rating, Blackgrass",[3]; [13],30
same,"Plant response rating, Blackgrass",[3]; [14],50
same,"Plant response rating, Soybean",soybean (Glycine max); [11],70
same,"Plant response rating, Soybean",soybean (Glycine max); [12],95
same,"Plant response rating, Soybean",soybean (Glycine max); [13],98
same,"Plant response rating, Soybean",soybean (Glycine max); [14],98
same,"Plant response rating, Wheat",[4]; [11],0
same,"Plant response rating, Wheat",[4]; [12],0
same,"Plant response rating, Wheat",[4]; [13],5
same,"Plant response rating, Wheat",[4]; [14],30
same,"Plant response rating, Cocklebur",[5]; [11],90
same,"Plant response rating, Cocklebur",[5]; [12],100
same,"Plant response rating, Cocklebur",[5]; [13],100
same,"Plant response rating, Cocklebur",[5]; [14],100
same,"Plant response rating, Pigweed",[6]; [11],95
same,"Plant response rating, Pigweed",[6]; [12],98
same,"Plant response rating, Pigweed",[6]; [13],98
same,"Plant response rating, Pigweed",[6]; [14],100
same,"Plant response rating, Oat, Wild",wild oat (Avena fatua); [11],0
same,"Plant response rating, Oat, Wild",wild oat (Avena fatua); [12],5
same,"Plant response rating, Oat, Wild",wild oat (Avena fatua); [13],5
same,"Plant response rating, Oat, Wild",wild oat (Avena fatua); [14],30
same,"Plant response rating, Kochia",kochia (Kochia scoparia); [11],90
same,"Plant response rating, Kochia",kochia (Kochia scoparia); [12],98
same,"Plant response rating, Kochia",kochia (Kochia scoparia); [13],98
same,"Plant response rating, Kochia",kochia (Kochia scoparia); [14],98
same,"Plant response rating, Lambsquarters",[7]; [11],98
same,"Plant response rating, Lambsquarters",[7]; [12],98
same,"Plant response rating, Lambsquarters",[7]; [13],100
same,"Plant response rating, Lambsquarters",[7]; [14],100
same,"Plant response rating, Chickweed",[8]; [11],90
same,"Plant response rating, Chickweed",[8]; [12],98
same,"Plant response rating, Chickweed",[8]; [13],98
same,"Plant response rating, Chickweed",[8]; [14],100
same,"Plant response rating, Canarygrass",[9]; [11],0
same,"Plant response rating, Canarygrass",[9]; [12],0
same,"Plant response rating, Canarygrass",[9]; [13],0
same,"Plant response rating, Canarygrass",[9]; [14],0
same,"Plant response rating, Windgrass",[10]; [11],20
same,"Plant response rating, Windgrass",[10]; [12],30
same,"Plant response rating, Windgrass",[10]; [13],30
same,"Plant response rating, Windgrass",[10]; [14],70
CCCn1c(-c2cc(F)cc(F)c2)ncc(C(=O)C2=C(O)CCCC2=O)c1=O [Compound 152],Surinam Grass plant response rating (0 to 100 scale),[1]; [15],85
same,"Plant response rating, Surinam Grass",[1]; [11],75
same,"Plant response rating, Surinam Grass",[1]; [16],90
same,"Plant response rating, Surinam Grass",[1]; [14],95
same,Velvetleaf plant response rating (0 to 100 scale),[2]; [15],95
same,"Plant response rating, Velvetleaf",[2]; [11],85
same,"Plant response rating, Velvetleaf",[2]; [16],100
same,"Plant response rating, Velvetleaf",[2]; [14],100
same,Blackgrass plant response rating (0 to 100 scale),[3]; [15],35
same,"Plant response rating, Blackgrass",[3]; [11],20
same,"Plant response rating, Blackgrass",[3]; [16],55
same,"Plant response rating, Blackgrass",[3]; [14],70
same,Soybean plant response rating (0 to 100 scale),soybean (Glycine max); [15],70
same,"Plant response rating, Soybean",soybean (Glycine max); [11],70
same,"Plant response rating, Soybean",soybean (Glycine max); [16],98
same,"Plant response rating, Soybean",soybean (Glycine max); [14],100
same,Wheat plant response rating (0 to 100 scale),[4]; [15],50
same,"Plant response rating, Wheat",[4]; [11],35
same,"Plant response rating, Wheat",[4]; [16],85
same,"Plant response rating, Wheat",[4]; [14],90
same,Cocklebur plant response rating (0 to 100 scale),[5]; [15],80
same,"Plant response rating, Cocklebur",[5]; [11],70
same,"Plant response rating, Cocklebur",[5]; [16],98
same,"Plant response rating, Cocklebur",[5]; [14],100
same,Pigweed plant response rating (0 to 100 scale),[6]; [15],98
same,"Plant response rating, Pigweed",[6]; [11],95
same,"Plant response rating, Pigweed",[6]; [16],100
same,"Plant response rating, Pigweed",[6]; [14],100
same,"Oat, Wild plant response rating (0 to 100 scale)",wild oat (Avena fatua); [15],45
same,"Plant response rating, Oat, Wild",wild oat (Avena fatua); [11],30
same,"Plant response rating, Oat, Wild",wild oat (Avena fatua); [16],80
same,"Plant response rating, Oat, Wild",wild oat (Avena fatua); [14],85
same,Kochia plant response rating (0 to 100 scale),kochia (Kochia scoparia); [15],65
same,"Plant response rating, Kochia",kochia (Kochia scoparia); [11],10
same,"Plant response rating, Kochia",kochia (Kochia scoparia); [16],95
same,"Plant response rating, Kochia",kochia (Kochia scoparia); [14],100
same,Lambsquarters plant response rating (0 to 100 scale),[7]; [15],95
same,"Plant response rating, Lambsquarters",[7]; [11],85
same,"Plant response rating, Lambsquarters",[7]; [16],98
same,"Plant response rating, Lambsquarters",[7]; [14],100
same,Chickweed plant response rating (0 to 100 scale),[8]; [15],65
same,"Plant response rating, Chickweed",[8]; [11],10
same,"Plant response rating, Chickweed",[8]; [16],90
same,"Plant response rating, Chickweed",[8]; [14],95
same,Canarygrass plant response rating (0 to 100 scale),[9]; [15],45
same,"Plant response rating, Canarygrass",[9]; [11],35
same,"Plant response rating, Canarygrass",[9]; [16],80
same,"Plant response rating, Canarygrass",[9]; [14],85
same,Windgrass plant response rating (0 to 100 scale),[10]; [15],70
same,"Plant response rating, Windgrass",[10]; [11],50
same,"Plant response rating, Windgrass",[10]; [16],85
same,"Plant response rating, Windgrass",[10]; [14],98
